Measurements: US7754772B2, “Nitrosated nonsteroidal antiinflammatory compounds, compositions and methods of use” (NicOx, S.A., priority 2002, dated 2010)
Read-outs that look alike come from different tables or passages of the source.

What was measured:
[1] = system: Male Sprague-Dawley rats, carrageenan paw edema; assay: rat paw edema test (carrageenan), antiinflammatory activity; type: in vivo
Experimental: The rat paw edema test was used to measure the antiinflammatory activity. The rat paw edema test was performed according to the method of Winter et al, Proc. Soc. […] Male Sprague-Dawley rats (250-275 g) were fasted overnight and dosed by oral gavage with vehicle or suspensions of compound one hour prior to the subplantar injection of 50 μl of 1% suspension of carrageenan. Three hours later, the paw volume was measured and compared with the initial volume measured immediately after carrageenan injection.

[2] = system: Male Sprague Dawley rats, gastric hemorrhagic lesion; assay: rat gastric lesion test; settings: rat fasted 24 hours, oral gavage, lesion score (summed length, mm) three hours after dosing; ratio relative to parent NSAID (Naproxen = 1)
Experimental: (§1) Male Sprague Dawley rats (Charles River Laboratories, Wilmington, Mass.) weighing 230-250 g were used for the experiments. The rats were housed with laboratory chow and water ad libitum prior to the study. The rats were fasted for 24 hours with free access to water and then dosed by oral gavage with vehicle or with test compounds given at a volume of 0.5 mL/100 g. […] Rats were euthanized by CO2 three hours after dosing. The stomachs were dissected along the greater curvature, washed with a directed stream of 0.9% saline and pinned open on a sylgard based petri dish for examination of the hemorrhagic lesion. Gastric lesion score was expressed in mm and calculated by summing the length of each lesion.

[3] = system: Male Sprague Dawley rats, gastric hemorrhagic lesion; settings: rat, in vivo, po
Experimental: as §1

[4] = oral gavage one hour prior to subplantar carrageenan, paw volume three hours later, expressed as ratio (Vehicle = 1)

| SMILES | Relative Activity Antiinflammation [1, 4] | Relative Activity Gastric Lesion [2] | Relative Activity Gastric Lesion [3] | Relative Activity Antiinflammation ([1]; in vivo, po) | melting point |
| --- | --- | --- | --- | --- | --- |
| COc1ccc2cc([C@H](C)C(=O)OCCS(=O)(=O)CCO[N+](=O)[O-])ccc2c1 [Example 2, 2-((2-(Nitrooxy)ethyl)sulfonyl)ethyl (2S)-2-(6-methoxy(2-naphthyl)) propanoate] | 0.49 | 0.11 |  |  |  |
| COc1ccc2cc(C(C)C(=O)OCCN(CCO[N+](=O)[O-])c3ccc([N+](=O)[O-])cc3)ccc2c1 (centres unmarked) [Example 4, 2-((2-(Nitrooxy)ethyl)4-nitrophenyl)amino)ethyl 2-(6-methoxy-2-naphthyl) propanoate] | 0.92 |  | 0.04 |  |  |
| COc1ccc2cc([C@H](C)C(=O)OC[C@H](CO[N+](=O)[O-])O[N+](=O)[O-])ccc2c1 [Example 5] |  |  | 0.21 | 0.45 |  |
| COc1ccc2cc([C@H](C)C(=O)OCC3(CO[N+](=O)[O-])COCOC3)ccc2c1 [Example 9] | 0.69 | 0.02 |  |  |  |
| COc1ccc2cc([C@H](C)C(=O)OCC(C)(CO[N+](=O)[O-])[N+](=O)[O-])ccc2c1 (stereo partly drawn) [Example 12, 2-Methyl-2-nitro-3-(nitrooxy)propyl(2S)-2-(6-methoxy(2-naphthyl)) propanoate] | 0.47 | 0.18 |  |  |  |
| COc1ccc2cc([C@H](C)C(=O)OCC(=O)N3CCC(CO[N+](=O)[O-])CC3)ccc2c1 [Example 19, 2-(4-((Nitrooxy)methyl)piperidyl)-2-oxoethyl (2S)-2-(6-methoxy(2-naphthyl))propanoate] | 0.60 |  | 0.30 |  |  |
| COc1ccc2cc([C@H](C)C(=O)OCC(=O)O[C@@H]3CO[C@H]4[C@H]3OC[C@H]4O[N+](=O)[O-])ccc2c1 [Example 26, (1S,5S,2R,6R)-6-(Nitrooxy)-4,8-dioxabicyclo(3.3.0)oct-2-yl)oxycarbonyl) methyl (2S)-2-(6-methoxy (2-naphthyl)) propanoate] | 0.75 | 0.07 |  |  |  |
| COc1ccc2cc([C@H](C)C(=O)OC[C@@H](O)CO[N+](=O)[O-])ccc2c1 [Example 28, (2R)-2-hydroxy-3-(nitrooxy)propyl (2S)-2-(6-methoxy(2-naphthyl)) propanoate] | 0.57 |  |  |  |  |
| COc1ccc2cc([C@H](C)C(=O)OCC(=O)N3CCC(CCO[N+](=O)[O-])CC3)ccc2c1 [Example 31, 2-(4-(2-(nitrooxy)ethyl)piperidyl)-2-oxoethyl (2S)-2-(6-methoxy(2-naphthyl))propanoate] | 0.61 |  | 0.06 |  |  |
| COc1ccc2cc([C@H](C)C(=O)Oc3ccccc3C(=O)OCCO[N+](=O)[O-])ccc2c1 [Example 33] | 0.60 |  | 0.07 |  |  |
| COc1ccc2cc([C@H](C)C(=O)NOCC(=O)N3CCC(CO[N+](=O)[O-])CC3)ccc2c1 [Example 35, (2S)-2-(6-Methoxy(2-naphthyl))-N-(2-(4-((nitrooxy)methyl)piperidyl)-2-oxoethoxy)propanamide] | 0.06 |  |  |  |  |
| COc1ccc2cc([C@H](C)C(=O)Oc3cccc(C(=O)OCCO[N+](=O)[O-])c3)ccc2c1 [Example 36] |  |  | 0.57 | 0.65 |  |
| COc1ccc2cc([C@H](C)C(=O)OCC(=O)N3CCN(CCO[N+](=O)[O-])CC3)ccc2c1.Cl [Example 37, 2-(4-(2-(Nitrooxy)ethyl)piperazinyl)-2-oxoethyl (2S)-2-(6-methoxy(2-naphthyl))propanoate hydrogen chloride] |  |  | 0.72 | 0.56 |  |
| COc1ccc2cc([C@H](C)C(=O)OCCOc3ccc(OCCO[N+](=O)[O-])cc3)ccc2c1 [Example 39, 2-(4-(2-(Nitrooxy)ethoxy)phenoxy)ethyl (2S)-2-(6-methoxy(2-naphthyl))propanoate] |  | 0.04 |  |  | 67 to 69 °C |
